How the values were obtained:
[1] = system: NLRP3 inflammasome-mediated IL-1β secretion; assay: IL-1β ELISA, LPS+ATP-activated J774A.1 macrophages (NLRP3 inflammasome); assay type: cell-based, mouse
Protocol: (A) J774A.1 macrophages (1×10^6/ml) and (B) peritoneal macrophages (1×10^5/ml) were incubated with compound 1h for 30 min followed by LPS (1 μg/ml) stimulating for 5.5 h, then the cells were stimulated with ATP (5 mM) for an additional 30 min. The IL-1β in the culture medium was measured by ELISA and the expression of active caspase-1 (p10) was measured by Western blot. In (C) and (D), J774A.1 macrophages (1×10^6/ml) were incubated with LPS (1 μg/ml) for 5.5 h, then cells were incubated with compound 1h for 30 min followed by stimulating with ATP (5 mM) for an additional 30 min. The IL-1β and IL-6 in the culture medium were measured by ELISA and the expression of active caspase-1 (p10) was measured by Western blot. In (E), J774A.1 macrophages (1×10^6/ml) were incubated with compound 1h for 30 min followed by LPS (1 μg/ml) stimulating for 6 h. The expression of NLRP3 and proIL-1β were measured by Western blot.
The effects of tested samples on IL-1β, TNF-α and IL-6 production were measured by ELISA according to the manufacturer's instruction. […] Following the addition of 100 μl of stop solution to each well to stop the reaction, the absorbance of the plate was measured by a microplate reader at 450 nm wavelength.

ERK1/2, JNK1/2, p38 = assay: Western blot of MAPK phosphorylation, LPS-activated RAW 264.7 macrophages; assay type: cell-based, murine; details: compound 1h 20 μM
Protocol: In (A), RAW 264.7 macrophages (5×10^5/ml) were incubated with compound 1h (20 μM), N-acetyl cysteine (NAC; 10 mM) or DMSO (vehicle) for 30 min followed by LPS (1 μg/ml) stimulating for the indicated time, then ROS levels were measured by detection of the fluorescence intensity of the fluorophore carboxyl-DCF and expressed relative to those at time zero. In (B), RAW 264.7 macrophages (5×10^5/ml) were incubated with compound 1h (20 μM) or DMSO for 30 min followed by LPS (1 μg/ml) stimulating for 0-60 min, then the phosphorylation levels of ERK1/2, JNK1/2, p38 were analyzed by Western blot. In (C), J774A.1 macrophages (5×10^5/ml) were incubated with compound 1h or DMSO for 30 min followed by LPS (1 μg/ml) stimulating for 20 min, then the phosphorylation levels of ERK1/2, JNK1/2, p38 were analyzed by Western blot.
(§1) Whole cell lysates were separated by SDS-PAGE and electrotransferred to a PVDF membrane. The membranes were incubated in blocking solution—5% nonfat milk in phosphate buffered saline with 0.1% Tween 20—at room temperature for 1 h. Each membrane was incubated with a specific primary antibody at room temperature for 2 h. After washing three times in PBS with 0.1% Tween 20, the membrane was incubated with an HRP-conjugated secondary antibody directed against the primary antibody. The membrane was developed by an enhanced chemiluminescence Western blot detection system.

IKK-α and IκB-α [2] = assay: Western blot of IKK-α and IκB-α, LPS-activated RAW 264.7 macrophages; assay type: cell-based, murine; details: LPS-activated RAW 264.7, LPS 20 min
Protocol: (§2) (A) RAW 264.7 macrophages (5×10^5/ml) or (B) J774A.1 macrophages (5×10^5/ml) were incubated with compound 1h or DMSO for 30 min followed by LPS (1 μg/ml) stimulating for 20 min, then the phosphorylation levels of IKK-α and IκB-α and total IκB-α protein level were analyzed by Western blot. (C) RAW 264.7 macrophages (5×10^5/ml) or (D) J774A.1 macrophages (5×10^5/ml) were incubated with compound 1h (10-40 μM) or DMSO for 30 min followed by LPS (1 μg/ml) stimulating for 20 min, then the nuclear translocation of NF-κB were analyzed by ELISA. (E) RAW-Blue™ cells (5×10^5/ml) were incubated with compound 1h (2.5-40 μM) or DMSO for 30 min followed by LPS (1 μg/ml) stimulating for 24 h, then the SEAP activity was measured by QUANTI-Blue™. […] In (C), (D), and (E), the data are expressed as the mean±SD for three separate experiments. *, **, and *** indicate a significant difference at the level of p<0.05, p<0.01, and p<0.001 respectively compared to LPS group.
as §1

COX-2 = assay: Western blot of COX-2 protein in LPS-activated RAW 264.7 macrophages; assay type: cell-based, murine
Protocol: In (A) and (C), cells (5×10^5/ml) were incubated with polyenylpyrrole derivatives or DMSO (vehicle) for 30 min followed by stimulating with LPS (1 μg/ml) for 24 h, then NO (A), IL-6 and TNF-α (C) concentration in culture medium were assayed by Griess reaction and ELISA, respectively. In (B), cells (5×10^5/ml) were pretreated with polyenylpyrrole derivatives or DMSO for 30 min followed by stimulating with LPS (1 μg/ml) for 24 h, then the protein expression of iNOS and COX-2 were assayed by Western blot.
as §1

IKK-α and IκB-α [3] = assay: Western blot of IKK-α and IκB-α, LPS-activated J774A.1 macrophages; assay type: cell-based, murine; details: LPS-activated J774A.1, LPS 20 min
Protocol: as §2, §1

Structure (SMILES): O=c1cc(O)cc(/C=C/C=C/C=C/C=C/c2[nH]ccc2Cl)o1 [Compound 1h]
- IL-1β secretion ([1]; J774A.1, compound before LPS and ATP treatment): significantly inhibited
- IL-1β secretion ([1]; LPS-primed J774A.1, compound 30 min before ATP stimulation): inhibited IL-1β secretion
- phosphorylation level of ERK1/2 (ERK1/2, JNK1/2, p38): inhibited
- phosphorylation level of JNK1/2 (ERK1/2, JNK1/2, p38): inhibited
- phosphorylation level of p38 (ERK1/2, JNK1/2, p38): inhibited
- IκB-α degradation (IKK-α and IκB-α [2]): partially rescued
- phosphorylation level of IKK-α (IKK-α and IκB-α [2]): inhibited
- phosphorylation level of IκB-α (IKK-α and IκB-α [2]): inhibited
- COX-2 expression (COX-2): did not affect
- IκB-α degradation (IKK-α and IκB-α [3]): partially rescued
- phosphorylation level of IKK-α (IKK-α and IκB-α [3]): inhibited
- phosphorylation level of IκB-α (IKK-α and IκB-α [3]): inhibited
